According to patent US11505523B2, “HDAC8 inhibitors for treating cancer” (City of Hope, priority 2013, dated 2022):
“Also recorded” adds a separate entry of the source.

Assays:
CL1-5 cells = assay: Cytotoxicity / anti-proliferative activity in CL1-5 lung cancer cells
[1] = tested on: p53 target genes in normal CD34^+ cells; assay: qRT-PCR of p53 target genes in normal CD34+ cells; assay type: cell-based, human; settings: similar treatment
Excerpt: (§1) FIGS. 5A-5G. […] FIG. 5A: Relative expression level of HDAC8 in normal (NL) PBSC (n=7) or inv(16)^+ AML (n=7) CD34^+ cells determined by qRT-PCR. Levels of HDAC8 expression were normalized to levels of ACTB in each sample. Dashed line indicates the average of all NL PBSC samples (set to an arbitrary value of 1). […] Each dot represents an individual subject and lines indicate mean±SEM. * P<0.05; ** P<0.01; *** P<0.001. […] Each dot represents an individual patient and lines indicate mean±SEM. * P<0.05; ** P<0.01; *** P<0.001. […] Levels of β-actin were detected as loading control. Shown are representative results from four patients. […] Each dot represents an individual subject and lines indicate mean±SEM. Dash line indicates levels in vehicle treated cells. * P<0.05; ** P<0.01; *** P<0.001. […] Each dot represents an individual patient and lines indicate mean±SEM.

[2] = tested on: p53 target genes in pre-leukemic and leukemic progenitor cells expressing CM; settings: 10 μM, 16 h, qRT-PCR
Excerpt: Relative expression of each target gene was normalized to levels of Hprt. Shown are fold activation compared to levels in vehicle treated cells (dashed line). Results represent the mean±SD.
We next examined whether enhanced p53 acetylation translate into increased p53 transcriptional activity. Using qRT-PCR assay, we accessed induction of p53 target genes in CM-ΔC95, CM, and CBFβ expressing cells upon IR (3Gy).

[3] = tested on: Ac-p53 (K382) in inv(16)^+ AML CD34^+ cells; assay: Western blot of Ac-p53 (K382) in inv(16)+ AML CD34+ cells; settings: 6 h
Excerpt: (§2) We therefore tested whether inhibiting HDAC8 deacetylase activity in inv(16)^+ AML CD34^+ cells could similarly lead to increased p53 acetylation and transcriptional activity.

HDAC4 = HDAC4 (Homo sapiens (Human), UniProt P56524); assay: Inhibition of purified HDAC4; settings: read-out: HDAC 4 IC50; class II
Sequence of HDAC4 (P56524 whole entry, species assumed): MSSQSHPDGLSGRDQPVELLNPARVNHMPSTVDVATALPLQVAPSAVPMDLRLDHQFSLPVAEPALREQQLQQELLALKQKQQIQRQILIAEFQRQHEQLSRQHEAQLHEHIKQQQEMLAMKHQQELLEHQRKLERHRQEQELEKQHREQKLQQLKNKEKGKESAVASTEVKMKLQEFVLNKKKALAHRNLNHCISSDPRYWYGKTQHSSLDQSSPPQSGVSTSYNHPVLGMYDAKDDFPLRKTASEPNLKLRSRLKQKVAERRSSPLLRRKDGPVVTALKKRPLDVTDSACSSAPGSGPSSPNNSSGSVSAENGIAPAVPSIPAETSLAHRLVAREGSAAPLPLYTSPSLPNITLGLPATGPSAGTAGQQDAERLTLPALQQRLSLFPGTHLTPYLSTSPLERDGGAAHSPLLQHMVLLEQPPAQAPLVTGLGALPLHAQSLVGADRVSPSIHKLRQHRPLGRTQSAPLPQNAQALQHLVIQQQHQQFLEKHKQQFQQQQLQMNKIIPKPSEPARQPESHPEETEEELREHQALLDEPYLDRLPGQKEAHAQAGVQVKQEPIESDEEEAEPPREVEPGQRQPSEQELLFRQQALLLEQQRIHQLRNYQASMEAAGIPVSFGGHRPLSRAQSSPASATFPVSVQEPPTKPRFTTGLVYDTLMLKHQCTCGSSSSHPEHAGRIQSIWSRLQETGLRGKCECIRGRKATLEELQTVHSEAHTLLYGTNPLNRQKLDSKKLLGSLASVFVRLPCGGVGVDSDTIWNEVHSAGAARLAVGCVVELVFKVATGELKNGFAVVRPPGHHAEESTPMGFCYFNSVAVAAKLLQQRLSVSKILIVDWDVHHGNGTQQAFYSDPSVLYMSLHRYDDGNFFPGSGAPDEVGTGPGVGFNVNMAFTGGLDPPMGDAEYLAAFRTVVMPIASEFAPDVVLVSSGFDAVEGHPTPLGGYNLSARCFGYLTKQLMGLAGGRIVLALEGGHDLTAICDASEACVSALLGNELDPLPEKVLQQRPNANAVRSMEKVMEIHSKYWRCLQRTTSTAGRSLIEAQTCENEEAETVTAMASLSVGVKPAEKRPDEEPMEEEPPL

MV4-11 cells = assay: Survival/apoptosis of MV4-11 AML cells by Annexin V labeling; assay type: cell-based, human
[4] = tested on: p53 target genes in 32D-CM cells; assay: qRT-PCR of p53 target genes in 32D-CM cells; assay type: cell-based; settings: 10 μM, 16 h
normal IMR-90 cells = assay: Cytotoxicity in normal IMR-90 cells; settings: result in words
[5] = tested on: Ac-p53 in non-inv(16) AML (p53 non-mutated) CD34^+ cells; assay: Western blot of Ac-p53 in non-inv(16) AML CD34+ cells; settings: similar treatment
Excerpt: as §2

HDAC2 = HDAC2 (Homo sapiens (Human), UniProt Q92769); assay: Inhibition of purified HDAC2; settings: read-out: HDAC 2 IC50; class I
Sequence of HDAC2 (Q92769 whole entry, species assumed): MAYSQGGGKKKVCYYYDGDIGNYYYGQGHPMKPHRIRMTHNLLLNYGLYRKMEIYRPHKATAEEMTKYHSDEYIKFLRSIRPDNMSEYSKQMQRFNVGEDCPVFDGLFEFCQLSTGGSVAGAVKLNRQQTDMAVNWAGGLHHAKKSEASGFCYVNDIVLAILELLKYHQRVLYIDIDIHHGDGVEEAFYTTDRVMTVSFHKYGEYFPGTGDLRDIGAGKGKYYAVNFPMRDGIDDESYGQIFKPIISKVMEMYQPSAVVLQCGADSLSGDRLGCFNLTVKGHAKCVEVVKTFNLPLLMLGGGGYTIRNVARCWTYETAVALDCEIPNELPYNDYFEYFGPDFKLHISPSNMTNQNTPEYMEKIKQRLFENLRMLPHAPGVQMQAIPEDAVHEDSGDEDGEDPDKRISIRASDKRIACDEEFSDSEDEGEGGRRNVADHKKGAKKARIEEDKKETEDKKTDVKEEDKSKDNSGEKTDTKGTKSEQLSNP

[6] = tested on: Ac-p53 (K379) in 32D-CM cells; assay: Western blot of Ac-p53 in CBFβ-SMMHC (CM)-expressing 32D cells; assay type: cell-based
Excerpt: Cells were lysed in RIPA buffer containing protease inhibitor cocktail (Roche) and MG132. Antibodies used for IP were conjugated with protein A/G beads using the antibody cross-linking kit (Pierce Biotechnology, Rockford, Ill.) following manufacturer's protocol. For Western blot, proteins were resolved in 10% SDS-PAGE. The antibodies used induced anti-FLAG (Sigma), anti-HDAC8, anti-CBFβ (Santa Cruz), anti-p53 (DO-1), anti-Ac-p53 (K379) (Cell Signaling), anti-p53 (Cell signaling) and anti-β-actin (Sigma). Horseradish peroxidase-conjugated anti-rabbit or anti-mouse secondary antibodies (Jackson ImmunoResearch, West Grove Pa.) were used, followed by detection using the SuperFemto kit (Pierce Biotechnology, Rockford, Ill.).
Class 1 HDACs, including HDAC1, HDAC2, and HDAC3, reportedly could inhibit p53 activity by deacetylating p53 [41-43]. […] To test this, we used lentivirus (pLKO. 1) mediated expression of 2 independent small-hairpin (sh)-RNA sequences against Hdac8 to specifically knock-down Hdac8 in 32D-CM cells. Cells were exposed to IR (3Gy) and analyzed for levels of p53 acetylation 6 h after.

[7] = tested on: inv(16)^+ AML CD34^+ cells; assay: Proliferation of inv(16)+ AML CD34+ cells, ATP-based cell viability assay; parameters: species or system human; settings: 48 h, 2.5 μM to 40 μM, compared to normal CD34+ cells
HeLa nuclear HDACs = assay: Inhibition of HeLa nuclear HDACs (HeLa nuclear extract, mainly HDACs1-3); assay type: biochemical; settings: read-out: HeLa HDAC IC50
[8] = tested on: normal HSCs (CB CD34^+ cells); assay: Engraftment of normal CB CD34+ cells treated ex vivo into NSG mice; settings: 10 μM 48 h ex vivo, 16 weeks
Excerpt: FIGS. 18A-18F. […] Shown are engraftment levels of each population (CD45+, CD34+, CD33+, CD14+, CD15+) in the bone marrow and spleen weight at 16 weeks after transplantation. […] FIGS. 18A-18F (in order): CD45+, CD34+, CD33+, CD14+, CD15+, and spleen.
AML is maintained by LSCs that are relatively resistant to chemotherapy and can persist as potential sources of relapse. Even though AML with CBF translocations are considered to have favorable prognosis, the incidence of relapse is still 25-58% with chemotherapy.

OCI-AML3 cells = assay: Survival/apoptosis of OCI-AML3 AML cells by Annexin V labeling; assay type: cell-based, human
[9] = tested on: p53 target genes in inv(16)^+ AML CD34^+ cells; assay: qRT-PCR of p53 target genes in inv(16)+ AML CD34+ cells; assay type: cell-based, human; settings: 10 μM, 16 h
Excerpt: as §1

HDAC11 = HDAC11 (Homo sapiens (Human), UniProt Q96DB2); assay: Inhibition of purified HDAC11; settings: read-out: HDAC 11 IC50; class IV
Sequence of HDAC11 (Q96DB2 whole entry, species assumed): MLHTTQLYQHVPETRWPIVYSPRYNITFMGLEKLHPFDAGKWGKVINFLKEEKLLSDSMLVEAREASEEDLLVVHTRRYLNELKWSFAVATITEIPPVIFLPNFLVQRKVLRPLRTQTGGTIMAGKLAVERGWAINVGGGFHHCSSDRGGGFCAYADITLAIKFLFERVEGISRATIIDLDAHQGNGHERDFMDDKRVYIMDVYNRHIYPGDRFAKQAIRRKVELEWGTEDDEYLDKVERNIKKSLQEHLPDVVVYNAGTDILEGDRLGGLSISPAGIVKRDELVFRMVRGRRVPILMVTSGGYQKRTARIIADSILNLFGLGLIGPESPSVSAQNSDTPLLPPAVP

[10] = tested on: inv(16)^+ AML CD34^+ cells; assay: Apoptosis of inv(16)+ AML CD34+ cells, Annexin V staining; assay type: cell-based, human
Excerpt: Given that the frequency of TP53 mutation is relatively low in AML, altered post-translational modification by HDAC8 could represent an alternative p53-inactivating mechanism and contribute to drug resistance of AML stem cells. We first examined the expression of HDAC8 in CD34^+ stem and progenitor cells isolated from patients with inv(16)^+ AML compared to normal mobilized peripheral blood stem cells (PBSC).

SMILES: COc1ccc(/C=C/C(=O)NO)c(-c2ccc(-c3ccccc3)cc2)c1 [Compound 22d, (E)-N-Hydroxy-4-methoxy-2-(biphenyl-4-yl)cinnamide]
- IC50 (CL1-5 cells; read-out: Cytotoxicity IC50 Cl1-5, mean SD of three determinations): 0.007 ± 0.0015 µM
- activity in CL1-5 cells (CL1-5 cells; result in words): activity similar to that of SAHA
- p53 target expression in normal CD34+ cells [1]: no or little change in p53 target expression
- activation of p53 target genes in progenitor cells expressing endogenous levels of CM [2]: induces activation of p53 targets
- Ac-p53 (K382) level in inv(16)+ AML CD34+ cells [3]: elevated levels of Ac-p53 (K382)
- IC50 (HDAC4): > 0.02 µM
- IC50 (MV4-11 cells; 48-hr, Annexin V labeling, read-out: MV4-11 Apoptosis IC50): 2.71 µM
- survival of MV4-11 cells (MV4-11 cells; 48 h, result in words): decreases with increased HDAC8i concentration
- activation of p53 targets (Bax, Puma, p21, Gadd45b and LincRNA-p21) [4]: Variable levels of activation
- cytotoxicity in normal IMR-90 cells (normal IMR-90 cells): no significant cytotoxicity
- Ac-p53 level in non-inv(16) AML CD34+ cells [5]: did not affect Ac-p53
- IC50 (HDAC2): > 0.02 µM
- Ac-p53 level in CM-expressing cells ([6]; Western blot, 6 h): remarkably increased Ac-p53
- Ac-p53 level, in combination with Nutlin-3 ([6]; compared to Nutlin-3 alone): enhanced Ac-p53 compared to Nutlin-3 alone
- enhancement of p53 acetylation compared to other HDAC inhibitors ([6]; vs MS-275, TV6, PCI-24781): differential activity in enhancing p53 acetylation
- proliferation of inv(16)+ CD34+ cells [7]: significantly reduced proliferation
- IC50 (HeLa nuclear HDACs): > 10 µM
- engraftment activity of normal HSCs [8]: does not affect normal HSC engraftment; also recorded: no impact on short-term or long-term engraftment activity
- IC50 (OCI-AML3 cells; 48-hr, Annexin V labeling, read-out: OCI-AML3 Apoptosis IC50): 8.12 µM
- survival of OCI-AML3 cells (OCI-AML3 cells; 48 h, result in words): decreases with increased HDAC8i concentration
- expression of p53 target genes in inv(16)+ AML CD34+ cells [9]: significantly induced expression of p53 target genes
- IC50 (HDAC11): > 0.02 µM
- apoptosis of inv(16)+ AML CD34+ cells ([10]; 48 h, compared to normal CD34+ cells or non-inv(16) AML): selectively induced apoptosis
- 22d-induced apoptosis after p53 knock-down ([10]; p53 shRNA vs non-silencing shRNA control, 2.5-40 μM): reduction of 22d-induced apoptosis
